Measured values as given in patent US20250261636A1, “QUATERNARY AMMONIUM SANITIZING COMPOSITION” (ECOLAB USA INC., priority 2020, published 2025).
Values joined by “and” are separate entries in the source; they are usually repeats but may differ in a detail not shown here. Equal values may be shown once.

Experiments:
[1] = tested on: Escherichia coli ATCC 11229; assay: AOAC Method 960.09 Germicidal and Detergent Sanitizing Action of Disinfectants, food contact sanitizing suspension test; type: cell-based; settings: for Log Reduction: per replicate
Experimental: (§1) The microbial efficacy of the multipurpose sanitizing composition was evaluated for food contact applications. The purpose of the testing is to determine the efficacy of compositions used for sanitizing food contact surfaces, which in the evaluations were pre-cleaned, non-porous surfaces using AOAC Method 960.09 Germicidal and Detergent Sanitizing Action of Disinfectants. […] The test organisms included Staphylococcus aureus ATCC 6538 and Escherichia coli ATCC 11229.
(§2) The pH was adjusted by use of a polycarboxylic acid (unless otherwise noted, such as the polycarboxylate citrate tested at pH 8). In this screening test pH 9, 8, 7, 5, 4, and 3 were tested. “NT” indicates a condition was “Not Tested.”

[2] = tested on: Staphylococcus aureus ATCC 6538; assay: as above; type: cell-based; settings: 30 ppm, pH 5, 120° F.
Experimental: as §1, §2

## CCCCCCCCCC[N+](C)(C)CCCCCCCCCC.[Cl-] [Bardac 2250, didecyl dimethyl ammonium chloride]
[1]; 30 ppm, pH 5, 120° F.
  Average Log Reduction: 6.83 log
[1]; 30 ppm, pH 7, 120° F.
  Average Log Reduction: 3.33 log
  CFU - Dilution 1E−01: TNTC
  CFU - Dilution 1E−02: TNTC
  CFU/mL: 3.00E+04 CFU/mL
  Log Reduction: 3.33 log
[1]; 30 ppm, pH 9, 120° F.
  Average Log Reduction: 3.33 log
  CFU - Dilution 1E−01: TNTC
  CFU - Dilution 1E−02: TNTC
  CFU/mL: 3.00E+04 CFU/mL
  Log: 4.48
  Log Reduction: 3.33 log
[1]; 40 ppm, pH 7, 120° F.
  Average Log Reduction: 5.02 log
[1]; 40 ppm, pH 9, 120° F.
  Average Log Reduction: 4.63 log
  CFU - Dilution 1E−01: 192 CFU and 120 CFU
  CFU - Dilution 1E−02: 12 CFU and 14 CFU
  CFU/mL: 1.85E+03 CFU/mL and 1.22E+03 CFU/mL
  Log: 3.27 and 3.09
  Log Reduction: 4.54 log and 4.72 log
[1]; 50 ppm, pH 7, 120° F.
  log reduction E. coli (ATCC 11229): 6.71 log
[2]
  log reduction S. aureus (ATCC 6538): 6.88 log
